Data set [1] deals with HPBMC cells. Briefly: HPBMC experiment: CD69 on anti-human IgM stimulated B cells, flow cytometry. Type of data set: cell-based. As to conditions: B-cell, B cells isolated from PBMC, 48 hours. How it is done:
• 1) Medium: RPMI Medium 1640+1% P/S+10% FBS • 2) MACS buffer: 2% FBS+1 mM EDTA in DPBS • 3) Staining buffer: DPBS+2% FBS • 1.2 Dilution of Compounds and Anti-Human IgM
The initial concentration of the compound to be tested was […], 3-fold dilution, 9 points, and it was added to a 96 well plate after dilution, 50 μL/ well.
The anti-human IgM was diluted according to Table 2 below, and added to the 96 well plate after dilution, 50 μL/well.
• 1) PBMC was removed from a liquid nitrogen tank, then resuscitated and thawed in a 37° C. water bath; • 2) Using a B cell olation kit, B cells were isolated from PBMC according to the instructions, and their viability and number were calculated using a cell counter.
Table 10 Number and viability of PBMC and B cells • 3) The cells were resuspended with 1640 culture medium to a final concentration of 1 M/mL. • 4) The B cells were spread at 0.1 M/ well (100 μL) into a 96-well flat-bottom plate already containing the compound and anti-IgM. • 5) The plate was incubated in a 37° C. CO2 incubator for 48 hours; […]
(In general: Flow cytometry measures light scatter and fluorescence of single cells or particles in a stream.)

Data set [2] is described as follows: Hepatocyte metabolic stability experiment (HMS), C. Type of data set: in vitro ADME. As to conditions: cynomolgus monkey, C hepatocytes, read-out: HMS CLint(liver). How it is done: (§1) Experimental operations: 198 μL of hepatocyte suspension (0.51×10^6 cells/mL) was added to the preheated incubation plate, and 198 μL of culture medium without hepatocytes was added to T0-MC and T120-MC incubation plates for the culture medium control group, and all incubation plates were pre-incubated for 10 minutes in a 37° C. incubator. Then 2 μL of the working solution of the test and control compounds were added and mixed well, and the incubation plate was immediately put into the plate shaker in the incubator, the rotation speed was adjusted to about 650 rpm, and the timer and the reaction were started. 2 duplicate samples for each compound were prepared at each time point. Incubation conditions: 37° C., saturated humidity, and containing 5% CO2. In the test system, the final concentration of the test compound was 1 μM, the final concentration of the control compound was 3 μM, the final concentration of hepatocytes was 0.5×10^6 cells/mL, and the final concentration of the total organic solvent was 0.96%, of which the final concentration of DMSO was 0.1%. […] All samples were mixed and analyzed by LC-MS/MS method. […]

Data set [3] in a line: Pharmacokinetic evaluation of compounds in dogs. Type of data set: in vivo. As to conditions: dog, plasma, beagle dogs. As for the experimental part: Experimental purpose: To test the in vivo pharmacokinetic data of compounds in beagle dogs.
The compound was mixed with the solvent 5% DMSO/5% Solutol/90% H2O, vortexed and sonicated to prepare a 0.5 mg/mL clear solution. The beagle dogs were administered the candidate compound solution intravenously. Whole blood was collected for a certain period of time, and plasma was prepared. The drug concentration was analyzed by LC-MS/MS method, and pharmacokinetic parameters were calculated.
The compound was mixed with the solvent 5% DMSO/5% Solutol/90% H2O, vortexed and sonicated to prepare a 0.5 mg/mL clear solution. The beagle dogs were administered candidate compound solutions orally. Whole blood was collected for a certain period of time, and plasma was prepared. The drug concentration was analyzed by LC- MS/MS method, and pharmacokinetic parameters were calculated.

A short description of data set [4]: Hepatocyte metabolic stability experiment (HMS), H. Type of data set: in vitro ADME. The settings on record: human, H hepatocytes, read-out: HMS CLint(liver). As for the experimental part:
as §1

Where [5] appears, read: IV, 0.49 mg/kg (002), 0.5 mg/kg (003B).

Structures are written as SMILES.

Turning to `Nc1nccc2c1n(-c1ccc(Oc3ccccc3)cc1)c(=O)n2[C@@H]1CCCN(C(=O)/C=C/CF)C1` [Compound 002], half-maximal inhibition in data set [1] (IC50) required 3.6 nM. Also, the CLint scaled at 1 μM in data set [2] was 203 mL/min/kg. Besides, in data set [3] (setting [5]), the AUC(0-inf) – broadly, the area under the concentration-time curve extrapolated to infinity – stood at 0.684 µM·h; the C0 was 1710 nM; the Vd (in general, a proportionality between amount in the body and measured concentration, not a real space) stood at 1.5 L/kg; the clearance (in general, the rate of elimination divided by the concentration) is 25.6 mL/min/kg. The half-life (commonly the time needed for the level to fall by half in the phase considered) in data set [3] (setting [5]) was 58.2 min. In data set [3] (PO, 2.0 mg/kg), the AUC(0-inf) worked out at 2.25 µM·h; the Cmax – broadly, the peak of the concentration-time curve – was 1140 nM; the Tmax (commonly the time at which the peak concentration occurs) turned out to be 30 min; the bioavailability (as a rule, the share of a dose that reaches the circulation, judged against a reference dose that is usually intravenous) worked out at 82.2%. Besides, the half-life in data set [3] (PO, 2.0 mg/kg) is 42.6 min. The CLint scaled at 1 μM in data set [4] stood at 130 mL/min/kg.

For the origin of these results see patent US20240217973A1, “IMIDAZOPYRIDINE COMPOUNDS AND USE THEREOF” (MEDSHINE DISCOVERY INC., priority 2021, published 2024).
